Results reported in the kinase profiling compilation of Christmann-Franck et al. (2016).

Key:
Experiment in all cases: KINOMEscan competition binding
Conditions in all cases: compound 10.0 µM
[1] = molecular target: RET (human) (UniProt P07949)
[2] = molecular target: STK10 (human) (UniProt O94804)
[3] = molecular target: STK36 (human) (UniProt Q9NRP7)
[4] = tested on: RET (human), P07949 [M918T]
[5] = tested on: EGFR (human), P00533 [A750P; 747-749 del]
[6] = molecular target: CSNK1A1L (human) (UniProt Q8N752)
Chain of CSNK1A1L (human) (Q8N752 whole entry, looked up): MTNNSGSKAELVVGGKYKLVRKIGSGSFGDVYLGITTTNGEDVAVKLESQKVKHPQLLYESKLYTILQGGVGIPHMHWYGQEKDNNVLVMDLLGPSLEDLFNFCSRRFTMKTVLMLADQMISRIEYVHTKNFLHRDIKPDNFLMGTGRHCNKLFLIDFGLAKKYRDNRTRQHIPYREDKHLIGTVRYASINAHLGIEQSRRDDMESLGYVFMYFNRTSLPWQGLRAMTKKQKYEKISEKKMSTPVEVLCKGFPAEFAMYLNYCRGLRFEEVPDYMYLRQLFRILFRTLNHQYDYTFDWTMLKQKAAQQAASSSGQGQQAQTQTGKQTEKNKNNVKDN

[7] = molecular target: MARK1 (human) (UniProt Q9P0L2)
[8] = molecular target: STK3 (human) (UniProt Q13188)
Chain of STK3 (human) (Q13188 whole entry, looked up): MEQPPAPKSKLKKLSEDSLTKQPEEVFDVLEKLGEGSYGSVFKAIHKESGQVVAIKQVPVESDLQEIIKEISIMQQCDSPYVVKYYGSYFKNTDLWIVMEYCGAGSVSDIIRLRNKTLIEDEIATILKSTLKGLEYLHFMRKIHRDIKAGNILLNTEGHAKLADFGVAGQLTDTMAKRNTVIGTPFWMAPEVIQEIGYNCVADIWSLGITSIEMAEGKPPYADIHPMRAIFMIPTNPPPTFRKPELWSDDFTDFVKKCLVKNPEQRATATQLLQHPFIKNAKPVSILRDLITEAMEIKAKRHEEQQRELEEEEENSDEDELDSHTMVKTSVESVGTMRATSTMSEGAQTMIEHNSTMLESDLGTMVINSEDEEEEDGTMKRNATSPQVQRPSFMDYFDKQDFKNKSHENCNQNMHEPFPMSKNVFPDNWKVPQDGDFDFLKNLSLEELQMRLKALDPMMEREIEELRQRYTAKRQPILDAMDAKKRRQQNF

[9] = tested on: EGFR (human), P00533 [L861Q]
[10] = molecular target: MAP3K3 (human) (UniProt Q99759)
[11] = molecular target: RPS6KA4 KD1 (human) (UniProt O75676)
Chain of RPS6KA4 KD1 (human) (O75676 whole entry, looked up): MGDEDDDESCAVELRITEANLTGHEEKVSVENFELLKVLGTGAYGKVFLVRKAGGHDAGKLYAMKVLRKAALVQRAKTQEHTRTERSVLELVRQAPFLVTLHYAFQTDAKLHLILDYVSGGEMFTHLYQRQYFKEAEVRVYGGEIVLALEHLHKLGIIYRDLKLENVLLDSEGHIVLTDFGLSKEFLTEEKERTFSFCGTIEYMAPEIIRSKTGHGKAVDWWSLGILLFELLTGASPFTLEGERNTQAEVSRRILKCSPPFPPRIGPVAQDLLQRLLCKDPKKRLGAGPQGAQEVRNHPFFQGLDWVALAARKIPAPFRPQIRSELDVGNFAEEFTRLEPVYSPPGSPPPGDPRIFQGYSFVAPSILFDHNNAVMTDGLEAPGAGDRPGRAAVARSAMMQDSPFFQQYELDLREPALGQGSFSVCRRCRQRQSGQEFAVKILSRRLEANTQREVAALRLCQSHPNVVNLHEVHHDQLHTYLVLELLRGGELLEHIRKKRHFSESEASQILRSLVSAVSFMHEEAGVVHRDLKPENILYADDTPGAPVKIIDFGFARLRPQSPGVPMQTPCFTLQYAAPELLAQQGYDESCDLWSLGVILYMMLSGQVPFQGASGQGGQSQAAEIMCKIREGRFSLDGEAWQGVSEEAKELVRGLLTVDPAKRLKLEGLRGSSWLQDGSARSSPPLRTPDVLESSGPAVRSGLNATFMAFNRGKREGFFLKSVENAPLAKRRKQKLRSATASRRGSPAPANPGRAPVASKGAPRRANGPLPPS

[12] = molecular target: STK38L (human) (UniProt Q9Y2H1)
[13] = molecular target: EPHB1 (human) (UniProt P54762)
[14] = molecular target: MST1R (human) (UniProt Q04912)
[15] = molecular target: CAMK4 (human) (UniProt Q16566)
[16] = molecular target: CAMK1G (human) (UniProt Q96NX5)
Chain of CAMK1G (human) (Q96NX5 whole entry, looked up): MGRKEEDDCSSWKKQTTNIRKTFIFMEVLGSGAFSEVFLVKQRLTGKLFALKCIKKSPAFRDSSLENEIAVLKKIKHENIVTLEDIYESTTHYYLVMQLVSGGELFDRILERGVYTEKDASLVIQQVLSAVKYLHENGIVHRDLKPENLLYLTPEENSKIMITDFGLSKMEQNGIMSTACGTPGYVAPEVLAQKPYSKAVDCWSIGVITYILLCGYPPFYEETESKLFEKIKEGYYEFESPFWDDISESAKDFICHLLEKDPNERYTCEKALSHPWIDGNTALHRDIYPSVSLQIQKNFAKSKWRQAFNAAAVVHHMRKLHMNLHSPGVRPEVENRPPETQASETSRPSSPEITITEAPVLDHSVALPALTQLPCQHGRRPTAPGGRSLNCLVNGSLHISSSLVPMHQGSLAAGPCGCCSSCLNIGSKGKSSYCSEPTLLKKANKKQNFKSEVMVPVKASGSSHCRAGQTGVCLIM

[17] = molecular target: TYRO3 (human) (UniProt Q06418)
[18] = molecular target: BMPR1A (human) (UniProt P36894)
[19] = molecular target: LATS1 (human) (UniProt O95835)
[20] = molecular target: KDR (human) (UniProt P35968)
[21] = molecular target: MAP4K3 (human) (UniProt Q8IVH8)
[22] = molecular target: GSK3B (human) (UniProt P49841)
Chain of GSK3B (human) (P49841 whole entry, looked up): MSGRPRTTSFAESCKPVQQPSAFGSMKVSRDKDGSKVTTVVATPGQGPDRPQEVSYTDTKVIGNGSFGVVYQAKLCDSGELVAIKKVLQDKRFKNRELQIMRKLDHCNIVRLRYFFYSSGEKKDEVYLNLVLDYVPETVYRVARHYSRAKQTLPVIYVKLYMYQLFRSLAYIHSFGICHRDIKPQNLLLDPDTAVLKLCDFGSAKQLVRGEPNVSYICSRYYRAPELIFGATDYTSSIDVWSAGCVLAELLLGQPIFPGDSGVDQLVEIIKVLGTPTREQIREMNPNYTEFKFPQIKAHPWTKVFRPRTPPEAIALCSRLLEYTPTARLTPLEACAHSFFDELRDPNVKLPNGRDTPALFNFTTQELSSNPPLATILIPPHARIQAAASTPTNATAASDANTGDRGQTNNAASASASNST

[23] = molecular target: CHEK2 (human) (UniProt O96017)
Chain of CHEK2 (human) (O96017 whole entry, looked up): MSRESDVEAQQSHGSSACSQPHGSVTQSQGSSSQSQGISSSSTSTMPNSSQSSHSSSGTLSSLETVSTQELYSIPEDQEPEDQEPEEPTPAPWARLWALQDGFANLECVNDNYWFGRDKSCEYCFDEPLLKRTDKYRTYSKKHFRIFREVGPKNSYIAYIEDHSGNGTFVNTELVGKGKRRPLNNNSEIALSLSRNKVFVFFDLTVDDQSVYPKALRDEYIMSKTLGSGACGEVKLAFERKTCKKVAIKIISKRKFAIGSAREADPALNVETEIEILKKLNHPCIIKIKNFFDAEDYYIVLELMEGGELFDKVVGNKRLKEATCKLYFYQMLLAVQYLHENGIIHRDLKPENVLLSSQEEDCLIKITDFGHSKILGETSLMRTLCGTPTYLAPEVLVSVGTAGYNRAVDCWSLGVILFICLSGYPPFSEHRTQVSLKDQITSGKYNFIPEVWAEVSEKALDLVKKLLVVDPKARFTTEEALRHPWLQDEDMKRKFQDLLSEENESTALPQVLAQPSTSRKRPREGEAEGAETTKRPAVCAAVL

[24] = molecular target: CDKL2 (human) (UniProt Q92772)
[25] = molecular target: INSRR (human) (UniProt P14616)
[26] = molecular target: MAPK10 (human) (UniProt P53779)
[27] = tested on: ABL1 (human), P00519 [F317L]
[28] = molecular target: BTK (human) (UniProt Q06187)
[29] = molecular target: IGF1R (human) (UniProt P08069)
[30] = molecular target: PIK3CA (human) (UniProt P42336)
[31] = molecular target: NTRK3 (human) (UniProt Q16288)
[32] = molecular target: PAK6 (human) (UniProt Q9NQU5)
Chain of PAK6 (human) (Q9NQU5 whole entry, looked up): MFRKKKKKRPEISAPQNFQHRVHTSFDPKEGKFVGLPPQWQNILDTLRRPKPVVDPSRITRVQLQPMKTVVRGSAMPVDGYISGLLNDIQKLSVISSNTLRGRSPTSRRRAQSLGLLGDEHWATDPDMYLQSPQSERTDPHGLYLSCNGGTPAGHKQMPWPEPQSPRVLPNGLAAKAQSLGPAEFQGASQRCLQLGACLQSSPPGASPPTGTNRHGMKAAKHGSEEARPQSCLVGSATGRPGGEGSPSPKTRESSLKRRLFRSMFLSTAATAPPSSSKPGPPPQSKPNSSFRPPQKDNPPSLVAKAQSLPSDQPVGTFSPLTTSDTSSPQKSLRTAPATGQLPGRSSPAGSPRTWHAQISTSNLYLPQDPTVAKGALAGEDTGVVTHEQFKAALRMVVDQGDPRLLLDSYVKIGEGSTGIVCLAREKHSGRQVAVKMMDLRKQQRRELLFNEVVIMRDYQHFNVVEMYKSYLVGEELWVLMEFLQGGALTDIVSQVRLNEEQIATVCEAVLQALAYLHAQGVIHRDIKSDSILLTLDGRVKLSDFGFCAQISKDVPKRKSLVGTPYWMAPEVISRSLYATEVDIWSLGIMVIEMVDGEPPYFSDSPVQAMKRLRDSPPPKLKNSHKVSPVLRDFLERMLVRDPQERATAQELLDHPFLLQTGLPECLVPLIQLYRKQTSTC

[33] = molecular target: EPHA3 (human) (UniProt P29320)
[34] = molecular target: PRKACB (human) (UniProt P22694)
[35] = molecular target: PRKD2 (human) (UniProt Q9BZL6)
[36] = molecular target: STK32C (human) (UniProt Q86UX6)
[37] = molecular target: YES1 (human) (UniProt P07947)
[38] = molecular target: TEK (human) (UniProt Q02763)
[39] = molecular target: PRKG2 (human) (UniProt Q13237)
[40] = molecular target: CDK5 (human) (UniProt Q00535)
[41] = molecular target: MYLK2 (human) (UniProt Q9H1R3)
[42] = molecular target: ROCK2 (human) (UniProt O75116)

Chain of RET (human), P07949 [M918T] (P07949 whole entry M918T, looked up): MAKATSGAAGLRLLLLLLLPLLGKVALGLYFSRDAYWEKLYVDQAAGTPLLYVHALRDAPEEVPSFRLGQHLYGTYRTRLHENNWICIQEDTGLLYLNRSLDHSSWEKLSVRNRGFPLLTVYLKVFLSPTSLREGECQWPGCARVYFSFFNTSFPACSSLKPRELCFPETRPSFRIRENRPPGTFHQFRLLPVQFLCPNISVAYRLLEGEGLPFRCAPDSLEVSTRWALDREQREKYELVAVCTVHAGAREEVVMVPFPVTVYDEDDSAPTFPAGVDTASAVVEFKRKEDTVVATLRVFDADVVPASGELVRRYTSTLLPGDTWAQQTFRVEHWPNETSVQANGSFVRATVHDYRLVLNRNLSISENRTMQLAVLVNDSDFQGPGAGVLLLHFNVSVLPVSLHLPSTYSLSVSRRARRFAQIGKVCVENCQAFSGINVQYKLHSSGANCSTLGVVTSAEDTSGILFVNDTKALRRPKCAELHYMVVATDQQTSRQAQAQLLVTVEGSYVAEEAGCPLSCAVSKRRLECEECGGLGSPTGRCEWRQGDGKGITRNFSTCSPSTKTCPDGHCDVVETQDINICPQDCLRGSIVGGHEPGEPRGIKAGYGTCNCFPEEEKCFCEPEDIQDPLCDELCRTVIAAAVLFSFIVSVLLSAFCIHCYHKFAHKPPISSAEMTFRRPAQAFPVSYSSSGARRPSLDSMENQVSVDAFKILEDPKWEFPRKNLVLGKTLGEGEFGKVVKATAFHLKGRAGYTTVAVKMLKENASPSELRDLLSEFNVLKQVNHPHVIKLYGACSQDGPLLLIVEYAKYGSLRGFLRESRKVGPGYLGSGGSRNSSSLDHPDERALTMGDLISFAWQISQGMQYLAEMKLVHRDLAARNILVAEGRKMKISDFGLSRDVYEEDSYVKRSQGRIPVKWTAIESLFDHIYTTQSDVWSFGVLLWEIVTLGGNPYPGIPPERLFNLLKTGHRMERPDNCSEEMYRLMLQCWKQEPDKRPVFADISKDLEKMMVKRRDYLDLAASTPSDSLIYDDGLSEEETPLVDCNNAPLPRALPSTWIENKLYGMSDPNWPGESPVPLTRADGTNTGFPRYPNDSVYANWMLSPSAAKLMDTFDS
Chain of RET (human) (P07949 whole entry, looked up): as the sequence (P07949 whole entry M918T, looked up) above, with T918M counted along it

CS(=O)(=O)Nc1ccc(-c2ncc(/C=C3\SC(=N)NC3=O)s2)cc1
kinase still bound, per cent of control [1]: 20% | kinase still bound, per cent of control [2]: 6.8% | kinase still bound, per cent of control [3]: 20% | kinase still bound, per cent of control [4]: 3.4%

Nc1cccc(-c2cc(/C=C3\SC(=O)NC3=O)c[nH]c2=O)c1
kinase still bound, per cent of control [5]: 9.4%

CN1CCN(c2ccc(C(=O)Nc3ncc4c(n3)N(C)c3ccccc3C(=O)N4C)cc2)CC1
kinase still bound, per cent of control [1]: 100% | kinase still bound, per cent of control [6]: 77% | kinase still bound, per cent of control [7]: 96% | kinase still bound, per cent of control [8]: 82% | kinase still bound, per cent of control [9]: 88% | kinase still bound, per cent of control [10]: 100% | kinase still bound, per cent of control [11]: 100% | kinase still bound, per cent of control [12]: 100% | kinase still bound, per cent of control [13]: 100% | kinase still bound, per cent of control [14]: 93% | kinase still bound, per cent of control [2]: 100% | kinase still bound, per cent of control [15]: 100% | kinase still bound, per cent of control [16]: 100% | kinase still bound, per cent of control [17]: 100% | kinase still bound, per cent of control [18]: 100% | kinase still bound, per cent of control [19]: 88% | kinase still bound, per cent of control [20]: 86% | kinase still bound, per cent of control [21]: 100% | kinase still bound, per cent of control [22]: 79% | kinase still bound, per cent of control [23]: 100% | kinase still bound, per cent of control [24]: 100% | kinase still bound, per cent of control [25]: 100% | kinase still bound, per cent of control [26]: 93% | kinase still bound, per cent of control [27]: 83% | kinase still bound, per cent of control [28]: 100% | kinase still bound, per cent of control [29]: 100% | kinase still bound, per cent of control [30]: 100% | kinase still bound, per cent of control [3]: 100% | kinase still bound, per cent of control [31]: 84% | kinase still bound, per cent of control [5]: 100% | kinase still bound, per cent of control [32]: 100% | kinase still bound, per cent of control [33]: 100% | kinase still bound, per cent of control [34]: 100% | kinase still bound, per cent of control [35]: 100% | kinase still bound, per cent of control [36]: 100% | kinase still bound, per cent of control [37]: 96% | kinase still bound, per cent of control [38]: 100% | kinase still bound, per cent of control [39]: 90% | kinase still bound, per cent of control [40]: 100% | kinase still bound, per cent of control [41]: 100% | kinase still bound, per cent of control [42]: 100% | kinase still bound, per cent of control [4]: 98%

CS(=O)(=O)Nc1ccc(-c2cc(/C=C3\SC(=N)NC3=O)c[nH]c2=O)cc1
kinase still bound, per cent of control [8]: 15% | kinase still bound, per cent of control [18]: 8% | kinase still bound, per cent of control [35]: 32%

O=C1NC(=O)/C(=C/c2c[nH]c(=O)c(-c3ccc(N4CCNCC4)nc3)c2)S1
kinase still bound, per cent of control [1]: 70% | kinase still bound, per cent of control [6]: 100% | kinase still bound, per cent of control [7]: 100% | kinase still bound, per cent of control [8]: 90% | kinase still bound, per cent of control [9]: 69% | kinase still bound, per cent of control [10]: 9.9% | kinase still bound, per cent of control [11]: 100% | kinase still bound, per cent of control [12]: 92% | kinase still bound, per cent of control [13]: 95% | kinase still bound, per cent of control [14]: 93% | kinase still bound, per cent of control [2]: 33% | kinase still bound, per cent of control [15]: 100% | kinase still bound, per cent of control [16]: 85% | kinase still bound, per cent of control [17]: 100% | kinase still bound, per cent of control [18]: 100% | kinase still bound, per cent of control [19]: 84% | kinase still bound, per cent of control [20]: 100% | kinase still bound, per cent of control [21]: 53% | kinase still bound, per cent of control [22]: 53% | kinase still bound, per cent of control [23]: 70% | kinase still bound, per cent of control [24]: 67% | kinase still bound, per cent of control [25]: 86% | kinase still bound, per cent of control [26]: 77% | kinase still bound, per cent of control [27]: 66% | kinase still bound, per cent of control [28]: 51% | kinase still bound, per cent of control [29]: 100% | kinase still bound, per cent of control [30]: 49% | kinase still bound, per cent of control [3]: 85% | kinase still bound, per cent of control [31]: 88% | kinase still bound, per cent of control [5]: 56% | kinase still bound, per cent of control [32]: 17% | kinase still bound, per cent of control [33]: 67% | kinase still bound, per cent of control [34]: 100% | kinase still bound, per cent of control [35]: 8.3% | kinase still bound, per cent of control [36]: 100% | kinase still bound, per cent of control [37]: 97% | kinase still bound, per cent of control [38]: 100% | kinase still bound, per cent of control [39]: 100% | kinase still bound, per cent of control [40]: 100% | kinase still bound, per cent of control [41]: 14% | kinase still bound, per cent of control [42]: 56% | kinase still bound, per cent of control [4]: 46%

CN1C(=O)[C@H]2CCC[C@H]2N(C2CCCC2)c2nc(Nc3ccc(C(N)=O)cc3)ncc21
kinase still bound, per cent of control [17]: 31% | kinase still bound, per cent of control [41]: 15%

O=C1NC(=S)S/C1=C\c1ccc(-c2cncc3ccccc23)o1
kinase still bound, per cent of control [12]: 29% | kinase still bound, per cent of control [16]: 34% | kinase still bound, per cent of control [20]: 21% | kinase still bound, per cent of control [23]: 14% | kinase still bound, per cent of control [26]: 12% | kinase still bound, per cent of control [31]: 32% | kinase still bound, per cent of control [32]: 29% | kinase still bound, per cent of control [33]: 17%

N=C1NC(=O)/C(=C/c2ccc(-c3ccc(C(N)=O)cc3O)o2)S1
kinase still bound, per cent of control [30]: 9.2% | kinase still bound, per cent of control [40]: 27%

N=C1NC(=O)/C(=C/c2c[nH]c(=O)c(-c3ccc(N4CCNCC4)nc3)c2)S1
kinase still bound, per cent of control [35]: 0.1%

N=C1NC(=O)/C(=C/c2ccc(-c3ccc(F)cc3O)o2)S1
kinase still bound, per cent of control [5]: 29% | kinase still bound, per cent of control [40]: 12%

CS(=O)(=O)Nc1ccc(-c2cncc(/C=C3\SC(=N)NC3=O)c2)cc1
kinase still bound, per cent of control [6]: 21% | kinase still bound, per cent of control [8]: 17% | kinase still bound, per cent of control [2]: 26% | kinase still bound, per cent of control [18]: 0.95% | kinase still bound, per cent of control [21]: 32% | kinase still bound, per cent of control [5]: 17%

N=C1NC(=O)/C(=C/c2ccc(-c3cncc4ccccc34)o2)S1
kinase still bound, per cent of control [8]: 25% | kinase still bound, per cent of control [11]: 15% | kinase still bound, per cent of control [16]: 18% | kinase still bound, per cent of control [18]: 33% | kinase still bound, per cent of control [23]: 33% | kinase still bound, per cent of control [26]: 3% | kinase still bound, per cent of control [28]: 31% | kinase still bound, per cent of control [32]: 14% | kinase still bound, per cent of control [33]: 13% | kinase still bound, per cent of control [35]: 8.1% | kinase still bound, per cent of control [41]: 12% | kinase still bound, per cent of control [4]: 21%

N=C1NC(=O)/C(=C/c2ccc(-c3csc4ccccc34)o2)S1
kinase still bound, per cent of control [15]: 25% | kinase still bound, per cent of control [22]: 12%
